Results reported in ChEMBL document CHEMBL4359905, “Discovery, structural insight, and bioactivities of BY27 as a selective inhibitor of the second bromodomains of BET proteins” (Eur J Med Chem, 2019).

Tests used:
[1] = target: T1, Bromodomain-containing protein 4 (Homo sapiens, UniProt O60885); experiment: Binding affinity to human recombinant BRD4 BD1 (44 to 168 residues) by fluorescence polarization assay
MV4-11 [2] = experiment: Antiproliferative activity against human MV4-11 cells assessed as cell growth inhibition after 4 days by CCK8 assay; assay type: functional, cell-based; settings: MV4-11, 96 h
MM1.S = experiment: Antiproliferative activity against human MM1S cells assessed as cell growth inhibition after 4 days by CCK8 assay; assay type: functional, cell-based; settings: 96 h
[3] = target: T1, Bromodomain-containing protein 4; experiment: Binding affinity to human recombinant BRD4 BD2 (333 to 460 residues) by fluorescence polarization assay
[4] = target: T2, Bromodomain-containing protein 3 (Homo sapiens, UniProt Q15059); experiment: Binding affinity to human recombinant BRD3 BD2 (306 to 417 residues) by fluorescence polarization assay
Target sequence in this assay (Q15059 whole entry, the tested form may be a part): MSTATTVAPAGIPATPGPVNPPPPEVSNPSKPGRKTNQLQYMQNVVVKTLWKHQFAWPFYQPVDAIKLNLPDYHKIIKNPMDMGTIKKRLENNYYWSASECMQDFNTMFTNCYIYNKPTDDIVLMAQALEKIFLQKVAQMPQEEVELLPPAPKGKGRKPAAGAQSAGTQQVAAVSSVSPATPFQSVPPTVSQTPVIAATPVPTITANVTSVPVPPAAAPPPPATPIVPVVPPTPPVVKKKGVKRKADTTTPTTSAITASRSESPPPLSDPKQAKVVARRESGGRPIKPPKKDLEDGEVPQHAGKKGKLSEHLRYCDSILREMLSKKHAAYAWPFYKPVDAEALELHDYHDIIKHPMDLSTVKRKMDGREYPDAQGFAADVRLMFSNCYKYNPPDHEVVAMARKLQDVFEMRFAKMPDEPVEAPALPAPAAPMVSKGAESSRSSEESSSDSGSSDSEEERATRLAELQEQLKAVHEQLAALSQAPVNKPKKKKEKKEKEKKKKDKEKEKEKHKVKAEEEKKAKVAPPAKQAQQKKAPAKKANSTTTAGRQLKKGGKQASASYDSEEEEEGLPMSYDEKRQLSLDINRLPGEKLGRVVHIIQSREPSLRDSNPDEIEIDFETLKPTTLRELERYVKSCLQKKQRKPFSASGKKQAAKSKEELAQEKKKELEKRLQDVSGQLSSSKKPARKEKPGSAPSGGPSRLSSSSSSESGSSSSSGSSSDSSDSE

[5] = target: T3, Bromodomain-containing protein 2 (Homo sapiens, UniProt P25440); experiment: Binding affinity to human recombinant BRD2 BD1 (72 to 205 residues) by fluorescence polarization assay
T3 sequence (P25440 whole entry, the tested form may be a part): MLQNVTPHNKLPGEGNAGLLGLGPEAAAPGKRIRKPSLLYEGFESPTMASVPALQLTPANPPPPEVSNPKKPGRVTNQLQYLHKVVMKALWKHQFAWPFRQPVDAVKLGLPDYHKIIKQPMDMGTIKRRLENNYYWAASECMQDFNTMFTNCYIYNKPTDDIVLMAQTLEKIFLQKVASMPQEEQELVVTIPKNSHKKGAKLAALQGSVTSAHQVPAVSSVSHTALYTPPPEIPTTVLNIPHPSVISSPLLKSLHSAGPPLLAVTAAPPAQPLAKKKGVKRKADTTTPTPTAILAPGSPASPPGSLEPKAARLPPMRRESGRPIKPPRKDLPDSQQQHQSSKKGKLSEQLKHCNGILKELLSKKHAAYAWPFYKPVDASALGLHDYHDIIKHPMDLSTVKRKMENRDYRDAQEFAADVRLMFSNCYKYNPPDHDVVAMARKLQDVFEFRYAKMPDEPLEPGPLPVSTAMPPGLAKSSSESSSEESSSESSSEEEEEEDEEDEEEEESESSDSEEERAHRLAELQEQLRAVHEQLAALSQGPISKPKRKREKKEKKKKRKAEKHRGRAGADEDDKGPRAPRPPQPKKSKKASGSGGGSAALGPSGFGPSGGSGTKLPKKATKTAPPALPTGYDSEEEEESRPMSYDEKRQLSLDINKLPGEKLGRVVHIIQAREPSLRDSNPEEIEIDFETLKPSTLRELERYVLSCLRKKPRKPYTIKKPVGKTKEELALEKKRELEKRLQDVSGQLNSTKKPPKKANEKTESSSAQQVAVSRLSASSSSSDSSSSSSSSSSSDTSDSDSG

[6] = target: T2, Bromodomain-containing protein 3; experiment: Selectivity index, ratio of Ki for human recombinant BRD3 BD1 (24 to 144 residues) to Ki for human recombinant BRD3 BD2 (306 to 417 residues)
Target sequence in this assay (Q15059 2-726 limits assumed): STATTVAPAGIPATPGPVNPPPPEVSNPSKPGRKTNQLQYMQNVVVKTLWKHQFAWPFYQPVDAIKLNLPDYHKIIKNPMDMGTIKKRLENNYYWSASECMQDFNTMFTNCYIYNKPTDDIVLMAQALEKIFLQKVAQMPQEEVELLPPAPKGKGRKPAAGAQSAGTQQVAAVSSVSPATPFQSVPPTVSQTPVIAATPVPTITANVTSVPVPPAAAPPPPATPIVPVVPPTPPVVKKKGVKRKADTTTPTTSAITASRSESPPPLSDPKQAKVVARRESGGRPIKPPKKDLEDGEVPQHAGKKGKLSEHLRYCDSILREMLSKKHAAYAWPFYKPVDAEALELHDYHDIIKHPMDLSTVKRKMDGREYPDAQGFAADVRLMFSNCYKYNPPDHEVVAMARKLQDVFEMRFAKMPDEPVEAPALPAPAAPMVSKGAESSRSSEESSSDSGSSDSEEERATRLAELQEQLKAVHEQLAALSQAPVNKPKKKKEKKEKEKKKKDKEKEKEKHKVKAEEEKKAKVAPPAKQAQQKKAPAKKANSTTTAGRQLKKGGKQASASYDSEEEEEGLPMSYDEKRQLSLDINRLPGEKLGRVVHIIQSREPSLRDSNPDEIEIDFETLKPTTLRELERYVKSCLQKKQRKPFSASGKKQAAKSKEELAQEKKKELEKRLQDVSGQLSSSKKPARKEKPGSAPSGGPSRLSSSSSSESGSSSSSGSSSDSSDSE

[7] = target: T3, Bromodomain-containing protein 2; experiment: Binding affinity to human recombinant BRD2 BD2 (349 to 460 residues) by fluorescence polarization assay
[8] = target: T2, Bromodomain-containing protein 3; experiment: Binding affinity to human recombinant BRD3 BD1 (24 to 144 residues) by fluorescence polarization assay
Target sequence in this assay (Q15059 whole entry, the tested form may be a part): as the sequence (Q15059 whole entry, the tested form may be a part) above

HepG2 [9] = experiment: Downregulation of ARID5B in human HepG2 cells after 4 hrs by qRT-PCR analysis; assay type: functional, cell-based
MV4-11 [10] = experiment: Upregulation of p21 mRNA expression in human MV4-11 cells after 24 hrs by qRT-PCR analysis; assay type: functional, cell-based
HepG2 [11] = experiment: Downregulation of […] in human HepG2 cells after 4 hrs by qRT-PCR analysis; assay type: functional, cell-based
MV4-11 [12] = experiment: Increase in p21 protein expression in human MV4-11 cells incubated for 24 hrs by western blot analysis; assay type: functional, cell-based
MV4-11 [13] = experiment: Decrease in c-Myc protein expression in human MV4-11 cells incubated for 24 hrs by western blot analysis; assay type: functional, cell-based
MV4-11 [14] = experiment: Downregulation of cMyc mRNA expression in human MV4-11 cells after 24 hrs by qRT-PCR analysis; assay type: functional, cell-based
HepG2 [15] = experiment: Downregulation of G6PC in human HepG2 cells after 4 hrs by qRT-PCR analysis; assay type: functional, cell-based

| Structure (SMILES) | Ki [1] [nM] | IC50 (MV4-11 [2]) [nM] | IC50 (MM1.S) [nM] | Ki [3] [nM] | also measured |
| --- | --- | --- | --- | --- | --- |
| Cc1nnc2n1-c1ccc(-c3cnn(C)c3)cc1C(Nc1cccc3ccccc13)CC2 (centres undefined) | 294 | 107 | 533 | 21.3 |  |
| Cc1nnc2n1-c1ccc(C3=CCNCC3)cc1C(Nc1ccc(Cl)cc1)CC2 (centres undefined) | 4450 | 2290 | 5700 | 284 |  |
| Cc1nnc2n1-c1ccc(-c3cncs3)cc1C(Nc1ccc(Cl)cc1)CC2 (centres undefined) | 266 | 374 | 345 | 34.8 |  |
| Cc1nnc2n1-c1ccc(NC(=O)C3CCN(C)CC3)cc1C(Nc1ccc(Cl)cc1)CC2 (centres undefined) | 1490 | 2410 | 8510 | 102 |  |
| Cc1nnc2n1-c1ccc(-c3ccc(CCCN4CCN(C)CC4)cc3)cc1C(Nc1ccc(Cl)cc1)CC2 (centres undefined) | 81.7 | 127 | 110 | 12.3 |  |
| Cc1nnc2n1-c1ccc(C3=CCN(C)CC3)cc1C(Nc1ccc(Cl)cc1)CC2 (centres undefined) | 4320 | 1780 | 3240 | 413 |  |
| Cc1nnc2n1-c1ccc(-c3ccc(N)nc3)cc1C(Nc1ccc(Cl)cc1)CC2 (centres undefined) | 636 |  |  | 68.4 |  |
| CC(=O)Nc1ccc2c(c1)C(Nc1ccc(Cl)cc1)CCc1nnc(C)n1-2 (centres undefined) | 457 | 1030 | 1440 | 50.3 |  |
| Cc1nnc2n1-c1ccc(-c3ccc(N)nc3)cc1C(Nc1ccc(F)cc1)CC2 (centres undefined) | 725 |  |  | 92.6 |  |
| Cc1nnc2n1-c1ccc(-c3cnoc3)cc1C(Nc1ccc(Cl)cc1)CC2 (centres undefined) | 232 | 6560 | 7720 | 83.7 |  |
| Cc1nnc2n1-c1ccc(-c3ccc(N)nc3)cc1C(Nc1ccc(C(F)(F)F)cc1)CC2 (centres undefined) | 576 |  |  | 147 |  |
| Cc1nnc2n1-c1ccc(N)cc1C(Nc1ccc(Cl)cc1)CC2 (centres undefined) | 11100 | 4330 | 7950 | 1230 |  |
| COc1ccc(NC2CCc3nnc(C)n3-c3ccc(-c4ccc(N)nc4)cc32)cc1 (centres undefined) | 1910 |  |  | 174 |  |
| Cc1nnc2n1-c1ccc(-c3cn[nH]c3)cc1C(Nc1ccc(Cl)cc1)CC2 (centres undefined) | 126 | 99.1 | 259 | 15.9 | Ki [4]: 13.9 nM; Ki [5]: 270 nM; Ratio Ki [6]: 8; Ki [7]: 19.1 nM; Ki [8]: 114 nM |
| Cc1nnc2n1-c1ccc(-c3ccnc(N)c3)cc1C(Nc1ccc(Cl)cc1)CC2 (centres undefined) | 535 | 500 | 345 | 74.7 |  |
| Cc1nnc2n1-c1ccc(-c3cnc(N)nc3)cc1C(Nc1ccc(Cl)cc1)CC2 (centres undefined) | 726 | 401 | 1020 | 66.2 |  |
| COc1ccc2c(c1)C(Nc1ccc(Cl)cc1)CCc1nnc(C)n1-2 (centres undefined) | 1300 | 1160 | 1400 | 249 |  |
| Cc1nnc2n1-c1ccc(-c3ccc(CN4CCN(C)CC4)cc3)cc1C(Nc1ccc(Cl)cc1)CC2 (centres undefined) | 271 | 112 | 241 | 18 |  |

| Structure (SMILES) | Ki [1] [nM] | IC50 (MV4-11 [2]) [nM] | IC50 (MM1.S) [nM] | Ki [3] [nM] | also measured |
| --- | --- | --- | --- | --- | --- |
| CCn1cc(-c2ccc3c(c2)C(Nc2ccc(Cl)cc2)CCc2nnc(C)n2-3)cn1 (centres undefined) | 77.2 | 94.6 | 63.5 | 14.8 | Ki [4]: 8.2 nM; Ki [5]: 193 nM; Ratio Ki [6]: 12; Ki [7]: 8.9 nM; Ki [8]: 99.7 nM |
| Cc1nnc2n1-c1ccc(-c3ccc(N)nc3)cc1C(Nc1cccc3ccccc13)CC2 (centres undefined) | 712 |  |  | 41.5 |  |
| Cc1nnc2n1-c1ccc(-c3ccc(N4CCN(C)CC4)cc3)cc1C(Nc1ccc(Cl)cc1)CC2 (centres undefined) | 115 | 70.8 | 210 | 17.4 |  |
| Cc1nnc2n1-c1ccc(-c3ccc4c(c3)CCC(=O)N4)cc1C(Nc1ccc(Cl)cc1)CC2 (centres undefined) | 310 | 143 | 132 | 68.8 |  |
| Cc1nnc2n1-c1ccc(-c3ccc(N)nc3)cc1C(Nc1ccc(C#N)cc1)CC2 (centres undefined) | 508 |  |  | 80.6 |  |
| Cc1nnc2n1-c1ccc(-c3cnn(C)c3)cc1C(Nc1ccc(Cl)cc1)CC2 (centres undefined) | 144 | 84.4 | 64.4 | 14.8 | Ki [4]: 11.1 nM; Ki [5]: 275 nM; Ratio Ki [6]: 17; Ki [7]: 9.1 nM; Ki [8]: 188 nM |
| Cc1nnc2n1-c1ccc(-c3ccc(N)nc3)cc1C(Nc1cc(C3CC3)nn1C)CC2 (centres undefined) | 1960 |  |  | 376 |  |
| Cc1nnc2n1-c1ccc(-c3ccc(N(C)C)cc3)cc1C(Nc1ccc(Cl)cc1)CC2 (centres undefined) | 466 | 1950 | 1020 | 65.4 |  |
| Cc1ccc(NC2CCc3nnc(C)n3-c3ccc(-c4ccc(N)nc4)cc32)cc1 (centres undefined) | 540 |  |  | 109 |  |
| Cc1nnc2n1-c1ccc(-c3cnn(C)c3)cc1[C@@H](Nc1ccc(Cl)cc1)CC2 | 5000 | 7730 | 4240 | 945 |  |
| Cc1nnc2n1-c1ccc(-c3ccc(N)nc3)cc1C(Nc1cccc(CO)c1)CC2 (centres undefined) | 1960 |  |  | 128 |  |
| Cc1nnc2n1-c1ccc(Br)cc1C(Nc1ccc(Cl)cc1)CC2 (racemic) | > 2000 | 2040 | 5310 | 736 |  |
| Cc1nnc2n1-c1ccc(-c3ccc(CCN4CCN(C)CC4)cc3)cc1C(Nc1ccc(Cl)cc1)CC2 (centres undefined) | 372 | 165 | 258 | 54.4 |  |
| Cc1nnc2n1-c1ccc(NS(C)(=O)=O)cc1C(Nc1ccc(Cl)cc1)CC2 (centres undefined) | 3350 | 4820 | 9060 | 918 |  |
| Cc1nnc2n1-c1ccc(-c3ccc(C(=O)O)cc3)cc1C(Nc1ccc(Cl)cc1)CC2 (centres undefined) | 247 | 3260 | 7060 | 47.3 |  |
| Cc1nnc2n1-c1ccc(-c3ccc(N)nc3)cc1C(Nc1nn(C)c3ccccc13)CC2 (centres undefined) | 10600 |  |  | 617 |  |
| Cc1sc2c(c1C)C(c1ccc(Cl)cc1)=N[C@@H](CC(=O)Nc1ccc(O)cc1)c1nnc(C)n1-2 [BIRABRESIB] |  | 17.6 | 22.7 |  | inhibition (HepG2 [9]): Dose-dependent effect; Activity (MV4-11 [10]): Dose-dependent effect; inhibition (HepG2 [11]): Dose-dependent effect; Activity (MV4-11 [12]): Dose-dependent effect; inhibition (MV4-11 [13]): Dose-dependent effect; inhibition (MV4-11 [14]): Dose-dependent effect; inhibition (HepG2 [15]): Dose-dependent effect |
| Cc1nnc2n1-c1ccc(-c3cnn(C)c3)cc1C(Nc1ccc3ccccc3c1)CC2 (centres undefined) | 419 | 116 | 535 | 24.7 |  |
